# Measurements: patent publication US20220117958A1, “COMPOSITIONS AND METHODS FOR INHIBITING ACSS2” (THE TRUSTEES OF THE UNIVERSITY OF PENNSYLVANIA, priority 2018, published 2022)
# System: Male Sprague-Dawley rat
# Experiment: Fear conditioning in rats (cued memory test)
# Assay type: in vivo
# Details: IP, dosed 5 min before and 30 min after acquisition, versus vehicle
# Method: A. Fear Conditioning in Rats
# Species: Rat; Strain: Male Sprague-Dawley (CD-SD strain 001; Charles River Labs); Age or weight: 7 to 9 weeks, approximately 250 grams
# Formulation(s): 5% DMSO in 0.5% methylcellulose
# Dose Levels: 4 mg/kg total; distributed into 2 injections of 2 mg/kg
# Dose Frequency: Twice; once prior to shock cycle and once right after last shock • 1st Injection—5 minutes before being placed into fear conditioning chamber • 2nd Injection—30 minutes after coming out of fear conditioning chamber (alternatively 30 min after last shock) • Study duration: 3 days
# Rats are handled for 3 consecutive days for ˜2 minutes each day prior to the experiment. […]
# Day 1—Conditioning (Acquisition)—animals are placed in the chambers and presented a training session (Context A). […] Freezing behavior (immobility) is recorded in 10-second intervals during the session. Percent baseline freezing behavior is determined in the 3-minute habituation period. […]
# The rats were provided 3 minutes habituation. […] Data is recorded in 10 see epochs. […]
# Animals are placed in the chambers with a different (lemon) scent and black Plexiglas floor over the grid floor (Context B). Freezing behavior in response to an altered context is recorded for 2 minutes in 10-second intervals. Then the 80 dB tone is presented for 8 minutes and immobility is recorded in 10-second intervals to measure freezing response to the tone cue.
smiles,measurement,setting,value
"COCCNC(=O)Nc1ccc2nc(-c3cccs3)c(-c3cccs3)nc2c1 [ADG-205c, 1-(2,3-di(thiophen-2-yl)quinoxalin-6-yl)-3-(2-methoxyethyl)urea]",Freezing during cue presentation (cued memory test),listed as EPV018,significant reduced freezing
same,Freezing during cue presentation (cued memory test),listed as EPV-018,statistically significant reduction
